By IC50 is commonly meant the concentration at which inhibition is half-maximal.

The subject of one assay is RSV A long virus strain. The class given is cell-based. The note with it: RSV A long virus strain, HEp-2 cells, plaque reduction, 1 day; read-out: IC50. In short, it runs like this:
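HEp-2 cells (30000/well) infected with 100 PFU virus premixed 1 h with compound (8 concentrations, duplicate); after 2 h adsorption, cultured 1 day at 37 °C under 0.8% CMC overlay with compound. Plaques immunostained (RSV antibody, TrueBlue) and counted; IC50 and CC50 by non-linear fitting of % inhibition versus virus and cell controls.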

The test system of the next assay is RSV A2 virus strain. Description: Mouse RSV A2 challenge protection, lung viral titer by plaque method. It is filed as in vivo, BALB/c mice. To be noted: for Mean (PFU/g lung): BALB/c mice, tracheal nebulization 1 mg/kg QD for 5 days, lung collected 2 h after final administration on Day 4; for effect on viral titer in lung tissue (in words): mice, tracheal nebulization once daily for 5 days. As to the method:
Female BALB/c mice were from Shanghai Yishang Biotechnology Co., Ltd. HEp- 2 were from the ATCC, with a catalog number CCL-23. The cells were cultured in a DMEM medium solution in which 10% (v/v) fetal bovine serum and 1% penicillin and streptomycin were added. The RSV A2 virus strain was from the ATCC, with a catalog number VR-1540.
Eight-week-old female BALB/c mice were grouped based on body weight (n=6). All animals were intranasally challenged with RSV on Day 0 at a challenge dosage of 1×10^6 pfu (20 μL) per animal. Administration began 1 h after Day 0 challenge; the polypeptide sample, positive control, and solvent control were administered via tracheal nebulization once daily for 5 consecutive days (see Table 3 below for administration dosage and administration frequency). Lung tissue was collected from all animals 2 h after the final administration on Day 4; left lung tissue was rapidly frozen in a virus protection solution with a 10-fold volume and stored below −70° C.; and a viral titer was detected by using a plaque method.
For analysis, the lung RSV A2 virus was determined by performing a tissue homogenate viral load plaque method. In short, on the day prior to sample detection, the HEp-2 cells were inoculated into a 12-well plate (spreading density being 0.3×10^6 cells/mL, with 1000 μL of cell suspension per well) according to a standard HEp-2 cell culture operation procedure. On the day of incubation, the supernatant was taken from the tissue sample that was homogenized using a tissue homogenizer (maintaining a low-temperature environment), and the supernatant was taken after centrifugation. The tissue homogenate sample was diluted with serum-free DMEM, and inoculated into a 12-well plate at a final volume of 400 μL. After 2 h of incubation, the homogenate supernatant was discarded, and 1.5 mL of a covering layer (cell culture medium containing 1% soft agar) was added to each well and cultured in the incubator for approximately 72 h. The covering layer was discarded, the cells were fixed, blocking was performed by using a blocking solution, dyeing was performed with HRP-RSVG, development and air drying were terminated with pure water. Colored spots on the well plate were counted by using a fluorescent (enzyme-linked) immunoassay spot analyzer, and the viral titer was expressed as a plaque-forming unit per gram of tissue (PFU/g). The viral titer was calculated as an arithmetic mean±standard error of all animals in a group.
One hour after RSV A2 challenge in mice, compounds 13, 14, 17, 19, 20, 21, 26, 27, 28, and 40 were administered via tracheal nebulization once daily for 5 consecutive days; and 2 h after the final administration, lung tissue was collected from all groups for viral plaque detection, and results were shown in Table 3.

Where a SMILES comes first, the peptide text is derived from it. The star is where a group is joined. Succinyl(4-O-cholesteryl) = CC(C)CCC[C@@H](C)[C@H]1CC[C@H]2[C@@H]3CC=C4C[C@@H](OC(=O)CCC(=O)*)CC[C@]4(C)[C@H]3CC[C@]12C

Take `CC[C@H](C)[C@H](NC(=O)[C@H](CCCCN)NC(=O)[C@H](CCCCN)NC(=O)[C@H](CC(C)C)NC(=O)[C@H](CO)NC(=O)[C@H](CCC(=O)O)NC(=O)[C@H](CCC(=O)O)NC(=O)[C@@H](NC(=O)[C@H](CCCCN)NC(=O)[C@H](CCCCN)NC(=O)[C@H](CC(N)=O)NC(=O)[C@@H](NC(=O)[C@H](CCC(=O)O)NC(=O)[C@H](CCC(=O)O)NC(=O)[C@@H](NC(=O)[C@H](CCCCN)NC(=O)[C@H](CCCCN)NC(=O)[C@H](CC(=O)O)NC(=O)[C@H](Cc1ccccc1)NC(=O)[C@H](CCC(=O)O)NC(=O)[C@H](CC(=O)O)NC(=O)[C@H](CO)NC(C)=O)[C@@H](C)CC)C(C)C)[C@@H](C)CC)C(=O)N[C@@H](CCC(=O)O)C(=O)N[C@@H](CCC(=O)O)C(=O)N[C@@H](CO)C(=O)N[C@@H](CC(=O)O)C(=O)N[C@@H](CCCCN)C(=O)N[C@@H](CCCCN)C(=O)N[C@@H](CC(C)C)C(=O)NCC(=O)N[C@@H](CO)C(=O)NCC(=O)N[C@@H](CO)C(=O)NCC(=O)N[C@@H](CCCCNC(=O)CCC(=O)O[C@H]1CC[C@@]2(C)C(=CC[C@H]3[C@@H]4CC[C@H]([C@H](C)CCCC(C)C)[C@@]4(C)CC[C@@H]32)C1)C(N)=O` [Compound 20] (Ac-SDEFDKKIEEVNKKIEESLKKIEESDKKLGSGSGK(Succinyl(4-O-cholesteryl))-NH2): in the assay with RSV A long virus strain, the half-inhibitory concentration (IC50) was determined as 19.8 nM. Moreover, in the assay with RSV A2 virus strain, the “Mean (PFU/g lung)” value is given as 8928 PFU/g lung and the “effect on viral titer in lung tissue (in words)” value (from here on “effect on viral titer”) was “significantly reduce the viral titer in lung tissue”.

Consider “Ac-FDEEISQVNEKINQSLAFIRKSDELLHNVNAGKSTTEAAAKK(Succinyl(4-O-cholesteryl))-NH2 [Compound 26]”, for which, in the assay with RSV A long virus strain, the IC50 was determined as 12.8 nM. Further, in the assay on RSV A2 virus strain, the “Mean (PFU/g lung)” value is 5015 PFU/g lung and the “effect on viral titer” value was “significantly reduce the viral titer in lung tissue”.

Regarding `CC[C@H](C)[C@H](NC(=O)[C@H](CCCCN)NC(=O)[C@H](CCCCN)NC(=O)[C@H](CC(C)C)NC(=O)[C@H](CO)NC(=O)[C@H](CCC(=O)O)NC(=O)[C@H](CCC(=O)O)NC(=O)[C@@H](NC(=O)[C@H](CCCCN)NC(=O)[C@H](CCCCN)NC(=O)[C@H](CC(N)=O)NC(=O)[C@@H](NC(=O)[C@H](CCC(=O)O)NC(=O)[C@H](CCC(=O)O)NC(=O)[C@@H](NC(=O)[C@H](CCCCN)NC(=O)[C@H](CCCCN)NC(=O)[C@H](CC(=O)O)NC(=O)[C@H](Cc1ccccc1)NC(=O)[C@H](CCC(=O)O)NC(=O)[C@H](CC(=O)O)NC(=O)[C@H](Cc1c[nH]c2ccccc12)NC(C)=O)[C@@H](C)CC)C(C)C)[C@@H](C)CC)C(=O)N[C@@H](CCC(=O)O)C(=O)N[C@@H](CCC(=O)O)C(=O)N[C@@H](CO)C(=O)N[C@@H](CC(=O)O)C(=O)N[C@@H](CCCCN)C(=O)N[C@@H](CCCCN)C(=O)N[C@@H](CC(C)C)C(=O)N[C@@H](CCC(=O)O)C(=O)N[C@@H](C)C(=O)N[C@@H](C)C(=O)N[C@@H](C)C(=O)N[C@@H](CCCCN)C(=O)N[C@@H](CCCCNC(=O)CCC(=O)O[C@H]1CC[C@@]2(C)C(=CC[C@H]3[C@@H]4CC[C@H]([C@H](C)CCCC(C)C)[C@@]4(C)CC[C@@H]32)C1)C(N)=O` [Compound 13] (Ac-WDEFDKKIEEVNKKIEESLKKIEESDKKLEAAAKK(Succinyl(4-O-cholesteryl))-NH2), the IC50 in the assay on RSV A long virus strain was 13 nM. Besides, in the assay with RSV A2 virus strain, the “Mean (PFU/g lung)” value stood at 5380 PFU/g lung and the “effect on viral titer” value is listed as “significantly reduce the viral titer in lung tissue”.

Take `CC[C@H](C)[C@H](NC(=O)[C@H](CCCCN)NC(=O)[C@H](CCCCN)NC(=O)[C@H](CC(C)C)NC(=O)[C@H](CO)NC(=O)[C@H](CCC(=O)O)NC(=O)[C@H](CCC(=O)O)NC(=O)[C@@H](NC(=O)[C@H](CCCCN)NC(=O)[C@H](CCCCN)NC(=O)[C@H](CC(N)=O)NC(=O)[C@@H](NC(=O)[C@H](CCC(=O)O)NC(=O)[C@H](CCC(=O)O)NC(=O)[C@@H](NC(=O)[C@H](CCCCN)NC(=O)[C@H](CCCCN)NC(=O)[C@H](CC(=O)O)NC(=O)[C@H](Cc1ccccc1)NC(=O)[C@H](CCC(=O)O)NC(=O)[C@H](CC(=O)O)NC(=O)[C@H](Cc1c[nH]c2ccccc12)NC(C)=O)[C@@H](C)CC)C(C)C)[C@@H](C)CC)C(=O)N[C@@H](CCC(=O)O)C(=O)N[C@@H](CCC(=O)O)C(=O)N[C@@H](CO)C(=O)N[C@@H](CC(=O)O)C(=O)N[C@@H](CCCCN)C(=O)N[C@@H](CCCCN)C(=O)N[C@@H](CC(C)C)C(=O)N[C@@H](CCC(=O)O)C(=O)N[C@@H](CCC(=O)O)C(=O)N[C@H](C(=O)N[C@@H](CC(N)=O)C(=O)N[C@@H](C)C(=O)N[C@@H](CCC(=O)O)C(=O)N[C@@H](C)C(=O)N[C@@H](C)C(=O)N[C@@H](C)C(=O)N[C@@H](CCCCN)C(=O)N[C@@H](CCCCNC(=O)CCC(=O)O[C@H]1CC[C@@]2(C)C(=CC[C@H]3[C@@H]4CC[C@H]([C@H](C)CCCC(C)C)[C@@]4(C)CC[C@@H]32)C1)C(N)=O)C(C)C` [Compound 40] (Ac-WDEFDKKIEEVNKKIEESLKKIEESDKKLEEVNAEAAAKK(Succinyl(4-O-cholesteryl))-NH2): in the assay with RSV A long virus strain, the IC50 was found to be 11.7 nM. Also, in the assay with RSV A2 virus strain, the “Mean (PFU/g lung)” value was determined as 5678 PFU/g lung and the “effect on viral titer” value was “significantly reduce the viral titer in lung tissue”.

On to “Ac-WDEFDASISQVNEKINQSLEEIRKSDELLHNVNAGLGSGSGK(Succinyl(4-O-cholesteryl))-NH2 [Compound 27]”, for which, in the assay on RSV A long virus strain, the IC50 stood at 25.7 nM. In the assay on RSV A2 virus strain, the “Mean (PFU/g lung)” value was 9458 PFU/g lung and the “effect on viral titer” value is “significantly reduce the viral titer in lung tissue”.

In the case of `CC[C@H](C)[C@H](NC(=O)[C@H](CO)NC(=O)[C@H](C)NC(=O)[C@H](CC(=O)O)NC(=O)[C@H](Cc1ccccc1)NC(=O)[C@H](CCC(=O)O)NC(=O)[C@H](CC(=O)O)NC(C)=O)C(=O)N[C@@H](CO)C(=O)N[C@@H](CCC(N)=O)C(=O)N[C@H](C(=O)N[C@@H](CC(N)=O)C(=O)N[C@@H](CCC(=O)O)C(=O)N[C@@H](CCCCN)C(=O)N[C@H](C(=O)N[C@@H](CC(N)=O)C(=O)N[C@@H](CCC(N)=O)C(=O)N[C@@H](CO)C(=O)N[C@@H](CC(C)C)C(=O)N[C@@H](CCC(=O)O)C(=O)N[C@@H](CCC(=O)O)C(=O)N[C@H](C(=O)N[C@@H](CCCNC(=N)N)C(=O)N[C@@H](CCCCN)C(=O)N[C@@H](CO)C(=O)N[C@@H](CC(=O)O)C(=O)N[C@@H](CCC(=O)O)C(=O)N[C@@H](CC(C)C)C(=O)N[C@@H](CC(C)C)C(=O)N[C@@H](Cc1c[nH]cn1)C(=O)N[C@@H](CC(N)=O)C(=O)N[C@@H](CCC(=O)O)C(=O)N[C@@H](C)C(=O)N[C@@H](C)C(=O)N[C@@H](C)C(=O)N[C@@H](CCCCN)C(=O)N[C@@H](CCCCNC(=O)CCC(=O)O[C@H]1CC[C@@]2(C)C(=CC[C@H]3[C@@H]4CC[C@H]([C@H](C)CCCC(C)C)[C@@]4(C)CC[C@@H]32)C1)C(N)=O)[C@@H](C)CC)[C@@H](C)CC)C(C)C` [Compound 28] (Ac-DEFDASISQVNEKINQSLEEIRKSDELLHNEAAAKK(Succinyl(4-O-cholesteryl))-NH2), in the assay on RSV A long virus strain, the IC50 amounted to 12.4 nM. Besides, in the assay with RSV A2 virus strain, the “Mean (PFU/g lung)” value was found to be 8425 PFU/g lung and the “effect on viral titer” value is on record as “significantly reduce the viral titer in lung tissue”.
